Measured values: patent publication US20240239788A1, “SMALL MOLECULE INHIBITORS OF KRAS G12D MUTANT” (Merck Sharp & Dohme LLC, priority 2021, published 2024)
Structures can show the parent of a compound that is named as a salt.

Tests used:
[1] = target: KRAS protein containing G12D mutation (Homo sapiens (Human), UniProt P01116, G12D); assay: SOS-catalyzed nucleotide exchange assay (GNE), TR-FRET; assay type: biochemical; settings: biotinylated KRAS G12D, SOS and GTP, 60-minute incubation
Protocol: Compounds are added to this complex and then after a 60-minute incubation time the mixture is treated with SOS and unlabeled GTP. Small molecule inhibitors stabilize the Bodipy-GDP complex whereas the untreated protein rapidly exchanges Bodipy-GDP for unlabeled GTP resulting in reduced TR-FRET signal.
This solution is referred to as biotinylated KRAS G12D stock solution.

[2] = test system: AsPC-1 cells containing homozygous KRAS-G12D activating mutation; assay: Cellular phospho-ERK assay with 10% FBS (Examples 107a-256); assay type: cell-based; settings: Homo sapiens, ASPC1, 2 h, read-out: IC50 (nM) pERK (cell with FBS 10%), AsPC-1 cells, 10% fetal bovine serum, 2 hours, ratio of p-Erk vs total Erk
Protocol: 5% CO2 for 2 hours. […] Assay plates were read on a EnVision Multimode Plate Reader (PerkinElmer) and the ratio of p-Erk vs total Erk in each well was used as the final readout.

Chain of KRAS protein containing G12D mutation (P01116 other isoform, or with tags, fused parts or gaps G12D (already in the parent)): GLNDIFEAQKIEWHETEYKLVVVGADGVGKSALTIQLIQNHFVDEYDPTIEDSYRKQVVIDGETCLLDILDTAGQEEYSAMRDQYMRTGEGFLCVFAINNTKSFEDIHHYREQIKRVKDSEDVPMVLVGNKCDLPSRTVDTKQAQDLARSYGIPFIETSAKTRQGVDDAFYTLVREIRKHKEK

Row | Compound | IC50 [1] [nM] | IC50 [2] [nM]
1 | CCc1cccc2cccc(-c3c(F)cc4c(N5C[C@H]6CC[C@@](C)(C5)N6)nc(OC[C@@]56CCCN5C[C@H](F)C6)nc4c3F)c12 [Ex. 141, 7-(8-ethylnaphthalen-1-yl)-6,8-difluoro-2-(((2R,7aS)-2-fluorotetrahydro-1H-pyrrolizin-7a(5H)-yl)methoxy)-4-((1S,5R)-1-methyl-3,8-diazabicyclo[3.2.1]octan-3-yl)-quinazoline, TFA] | 139 | 16400
2 | C#Cc1csc2ccnc(-c3c(F)cc4c(N5C[C@H]6CC[C@@H](C5)N6)nc(OC[C@@]56CCCN5C[C@H](F)C6)nc4c3F)c12 [Ex. 152, 4-(4-((1R,5S)-3,8-diazabicyclo[3.2.1]octan-3-yl)-6,8-difluoro-2-(((2R,7aS)-2-fluorotetrahydro-1H-pyrrolizin-7a(5H)-yl)-methoxy)quinazolin-7-yl)-3-ethynylthieno[3,2-c]pyridine] | 848 | 5190
3 | C[C@]12CC[C@H](CN(c3nc(OC[C@@]45CCCN4C[C@H](F)C5)nc4c(F)c(-c5cc(O)cc6cccc(C7CC7)c56)c(F)cc34)C1)N2 [Ex. 159, 5-cyclopropyl-4-(6,8-difluoro-2-(((2R)-2-fluorotetrahydro-1H-pyrrolizin-7a(5H)-yl)-methoxy)-4-((1S,5R)-1-methyl-3,8-diaza-bicyclo[3.2.1]octan-3-yl)quinazolin-7-yl)-naphthalen-2-ol] | 4.28 | 139
4 | C[C@]12CCC(CN(c3nc(OC[C@@]45CCCN4C[C@H](F)C5)nc4c(F)c(-c5cc(O)cc6cccc(Cl)c56)c(F)c(F)c34)C1)N2 [Ex. 172, 5-chloro-4-(5,6,8-trifluoro-2-(((2R,7aS)-2-fluorotetrahydro-1H-pyrrolizin-7a(5H)-yl)-methoxy)-4-((1S,5R)-1-methyl-3,8-diaza-bicyclo[3.2.1]octan-3-yl)quinazolin-7-yl)-naphthalen-2-ol, 2TFA] | 17.1 | 3500
5 | CN1CCC[C@H]1COc1nc(N2C[C@H]3CC[C@@](C)(C2)N3)c2cc(F)c(-c3cc(O)cc4cccc(Cl)c34)c(F)c2n1 [Ex. 185, 5-chloro-4-(6,8-difluoro-4-((1S,5R)-1-methyl-3,8-diaza-bicyclo-[3.2.1]octan-3-yl)-2-(((S)-1-methyl-pyrrolidin-2-yl)meth-oxy)quinazolin-7-yl)-naphthalen-2-ol] | 732 | 7040
6 | C[C@]12CC[C@H](CN(c3nc(OC[C@@]45CCCN4C[C@H](F)C5)nc4c(F)c(-c5c6cn[nH]c6cc6cccc(Cl)c56)c(F)cc34)C1)N2 [Ex. 187, 5-chloro-4-(6,8-difluoro-2-(((2R,7aS)-2-fluorotetrahydro-1H-pyrrolizin-7a(5H)-yl)-methoxy)-4-((1S,5R)-1-methyl-3,8-diaza-bicyclo[3.2.1]octan-3-yl)quinazolin-7-yl)-1H-benzo[f]indazole] | 27.3 | 1100
7 | C[C@]12CC[C@H](CN(c3nc(OC[C@@]45CCCN4C[C@H](F)C5)nc4c(F)c(-c5nc(N)nc6cccc(Cl)c56)c(F)cc34)C1)N2 [Ex. 188, 5-chloro-6′,8′-difluoro-2′-(((2R,7aS)-2-fluoro-tetrahydro-1H-pyrrol-izin-7a(5H)-yl)meth-oxy)-4'-((1S,5R)-1-methyl-3,8-diaza-bicyclo[3.2.1]octan-3-yl)-[4,7′-biquinazolin]-2-amine] | 3400 | 30000
8 | Fc1cc2c(N3C[C@H]4CC[C@@H](C3)N4)nc(OC[C@@]34CCCN3C[C@H](F)C4)nc2c(F)c1-c1ccnc2cccc(Cl)c12 [Ex. 194, 4-((1R,5S)-3,8-diaza-bicyclo[3.2.1]octan-3-yl)-7-(5-chloroquinolin-4-yl)-6,8-difluoro-2-(((2R,7aS)-2-fluoro-tetrahydro-1H-pyrrol-izin-7a(5H)-yl)meth-oxy)quinazoline] | 1920 | 11800
